The target in assay [1] is T1, complement C5a receptor 1 (C5aR1) (Homo sapiens, UniProt P21730).
T1 construct: β-galactosidase fragment (PathHunter enzyme complementation); host or cells: CHO-K1 (PathHunter CHO-K1 C5aR1 β-arrestin cell line)
T1 sequence (P21730 1-350): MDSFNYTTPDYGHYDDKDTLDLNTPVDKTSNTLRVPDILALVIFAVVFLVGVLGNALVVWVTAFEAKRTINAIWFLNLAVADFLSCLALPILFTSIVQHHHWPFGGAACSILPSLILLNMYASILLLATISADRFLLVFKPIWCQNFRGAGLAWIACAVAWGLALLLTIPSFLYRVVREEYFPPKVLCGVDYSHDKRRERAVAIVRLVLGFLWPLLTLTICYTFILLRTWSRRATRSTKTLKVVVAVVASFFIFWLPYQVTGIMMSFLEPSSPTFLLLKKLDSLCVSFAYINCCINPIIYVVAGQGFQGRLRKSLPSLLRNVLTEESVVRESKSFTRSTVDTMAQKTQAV
Put plainly: β-arrestin recruitment via C5aR1 activation in live CHO-K1 cells (PathHunter), antagonist mode. In kind it is cell-based. The note with it: antagonist mode; recombinant hC5a (EC90) as competing natural agonist; live CHO-K1 cells; read-out: [Antagonist] B-arrestin2 recruitment: Average IC50. Put shortly:
(§1)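 β-arrestin recruitment to C5aR1 in CHO-K1 cells is detected by enzyme-fragment complementation. Antagonism is measured against recombinant hC5a at its EC90; agonism is measured with compound alone. Potencies are grouped into IC50 categories.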
(In general: Activated receptors often draw arrestin, which recruitment assays turn into a signal.)

For assay [2], the target named is T1, complement C5a receptor 1 (C5aR1). Description: β-arrestin recruitment via C5aR1 activation in live CHO-K1 cells (PathHunter), agonist mode. In kind it is cell-based. The gist of the method: as §1

Each structure is given as a SMILES string. Where two headings read alike, the source gives them in different places.

One may read the IC50 as the midpoint of a concentration-inhibition curve. As to `Cc1cnc2cc([C@H]3CC[C@H](c4c(F)cccc4F)CC3)c(=O)n(Cc3ncccc3OC(F)(F)F)c2n1` [compound 209, 7-((1r,4r)-4-(2,6-Difluorophenyl)cyclohexyl)-3-methyl-5-((3-(trifluoromethoxy)pyridin-2-yl)methyl)pyrido[2,3-b]pyrazin-6(5H)-one], the half-inhibitory concentration (IC50) in assay [1] is less than 500 nM. Further, in assay [2] (at 10 μM), the “[Agonist] B-arrestin2 recruitment: Average EC50 (nM)” value (from here on “[Agonist] B-arrestin2 recruitment”) was “Non-Active at 10 μM”.
Regarding `Cc1cnc2cc([C@H]3CC[C@H](c4ccc5c(cnn5C)c4)CC3)c(=O)n(Cc3ncccc3C(F)(F)F)c2n1` [compound 192, 3-Methyl-7-((1r,4r)-4-(1-methyl-1H-indazol-5-yl)cyclohexyl)-5-((3-(trifluoromethyl)pyridin-2-yl)methyl)pyrido[2,3-b]pyrazin-6(5H)-one], in assay [1], the IC50 fell in the range of 500 to 5000 nM. Besides, the “[Agonist] B-arrestin2 recruitment” value in assay [2] (at 10 μM) was “Non-Active at 10 μM”.
Turning to `O=c1c(C2CCN(c3cnccc3C(F)(F)F)CC2)cc2nccnc2n1Cc1nccnc1C(F)(F)F` [compound 70, 5-((3-(Trifluoromethyl)pyrazin-2-yl)methyl)-7-(1-(4-(trifluoromethyl)pyridin-3-yl)piperidin-4-yl)pyrido[2,3-b]pyrazin-6(5H)-one], the half-maximal inhibitory concentration (IC50) in assay [1] was 500 to 5000 nM. In addition, in assay [2], the “[Agonist] B-arrestin2 recruitment” value is recorded as “Non-Active”.
Regarding `Cc1cnc2cc([C@@H]3CC[C@H](c4c(C)cccc4F)C3)c(=O)n(Cc3nccnc3C(F)(F)F)c2n1` [197C, 7-((1R,3S)-3-(2-Fluoro-6-methylphenyl)cyclopentyl)-3-methyl-5-((3-(trifluoromethyl)pyrazin-2-yl)methyl)pyrido[2,3-b]pyrazin-6(5H)-one], the concentration for half-maximal inhibition (IC50) in assay [1] lay within 5000 to 100000 nM. In addition, in assay [2] (at 10 μM), the “[Agonist] B-arrestin2 recruitment” value was “Non-Active at 10 μM”.
With `Cc1ccc2cc([C@H]3CC[C@H](c4c(C)cccc4F)CC3)c(=O)n(Cc3ncccc3C(F)(F)F)c2n1` [compound 183, 3-((1r,4r)-4-(2-Fluoro-6-methylphenyl)cyclohexyl)-7-methyl-1-((3-(trifluoromethyl)pyridin-2-yl)methyl)-1,8-naphthyridin-2(1H)-one], the IC50 in assay [1] is less than 500 nM. Further, the “[Agonist] B-arrestin2 recruitment” value in assay [2] (at 10 μM) is recorded as “Non-Active at 10 μM”.
Regarding `Cc1cnc2cc([C@@H]3CC[C@@H](c4c(C)cccc4F)C3)c(=O)n(Cc3ncccc3C(F)F)c2n1` [187D, 5-((3-(Difluoromethyl)pyridin-2-yl)methyl)-7-((1R,3R)-3-(2-fluoro-6-methylphenyl)cyclopentyl)-3-methylpyrido[2,3-b]pyrazin-6(5H)-one], the IC50 in assay [1] fell in the range of 500 to 5000 nM. The “[Agonist] B-arrestin2 recruitment” value in assay [2] (at 10 μM) was “Non-Active at 10 μM”.
Turning to `Cc1cccc(F)c1N1CCC(c2nc3ccccc3n(Cc3ncccc3C(F)(F)F)c2=O)CC1` [compound 139, 3-(1-(2-Fluoro-6-methylphenyl)piperidin-4-yl)-1-((3-(trifluoromethyl)pyridin-2-yl)methyl)quinoxalin-2(1H)-one], the half-inhibitory concentration (IC50) in assay [1] is greater than 100000 nM. In assay [2] (at 10 μM), the “[Agonist] B-arrestin2 recruitment” value is “Non-Active at 10 μM”.
The corresponding values for `Cc1cnc2cc(C3CCN(c4c(C)cccc4F)CC3)c(=O)n(Cc3nccnc3OC(F)F)c2n1` [compound 167, 5-((3-(Difluoromethoxy)pyrazin-2-yl)methyl)-7-(1-(2-fluoro-6-methylphenyl)piperidin-4-yl)-3-methylpyrido[2,3-b]pyrazin-6(5H)-one] are less than 500 nM and “Non-Active at 10 μM”.
Regarding `Cc1cnc2cc([C@H]3CC[C@H](c4nn(C)c5ccccc54)CC3)c(=O)n(Cc3ncccc3C(F)(F)F)c2n1` [compound 191, 3-Methyl-7-((1r,4r)-4-(1-methyl-1H-indazol-3-yl)cyclohexyl)-5-((3-(trifluoromethyl)pyridin-2-yl)methyl)pyrido[2,3-b]pyrazin-6(5H)-one], in assay [1], the IC50 lay within 5000 to 100000 nM. In addition, the “[Agonist] B-arrestin2 recruitment” value in assay [2] (at 10 μM) is “Non-Active at 10 μM”.
With `Cc1cnc2cc(N3CCN(c4c(C)cccc4F)CC3)c(=O)n(Cc3nccnc3OC(F)F)c2n1` [161A, 5-((3-(Difluoromethoxy)pyrazin-2-yl)methyl)-7-(4-(2-fluoro-6-methylphenyl)piperazin-1-yl)-3-methylpyrido[2,3-b]pyrazin-6(5H)-one], in assay [1], the IC50 fell in the range of 500 to 5000 nM. Besides, the “[Agonist] B-arrestin2 recruitment” value in assay [2] (at 10 μM) was “Non-Active at 10 μM”.
`Cc1cnc2cc([C@H]3CC[C@@H](c4c(C)cccc4F)C3)c(=O)n(Cc3nccnc3C)c2n1` [172A, 7-((1S,3R)-3-(2-Fluoro-6-methylphenyl)cyclopentyl)-3-methyl-5-((3-methylpyrazin-2-yl)methyl)pyrido[2,3-b]pyrazin-6(5H)-one]: in assay [1], the IC50 was 500 to 5000 nM. In addition, the “[Agonist] B-arrestin2 recruitment” value in assay [2] (at 10 μM) is reported as “Non-Active at 10 μM”.
Regarding `Cc1cccc(F)c1N1CCC(c2cc3nccnc3n(Cc3ccncc3C(F)(F)F)c2=O)CC1` [compound 17, 7-(1-(2-Fluoro-6-methylphenyl)piperidin-4-yl)-5-((3-(trifluoromethyl)pyridin-4-yl)methyl) pyrido[2,3-b]pyrazin-6(5H)-one], in assay [1], the IC50 was in the range of 500 to 5000 nM. Moreover, the “[Agonist] B-arrestin2 recruitment” value in assay [2] is recorded as “Non-Active”.
Consider `COc1cccnc1Cn1c(=O)c([C@H]2CC[C@H](c3c(C)cccc3F)CC2)cc2nc(C(F)(F)F)cnc21` [compound 214, 7-((1r,4r)-4-(2-Fluoro-6-methylphenyl)cyclohexyl)-5-((3-methoxypyridin-2-yl)methyl)-2-(trifluoromethyl)pyrido[2,3-b]pyrazin-6(5H)-one], for which the IC50 in assay [1] lay in the range of 5000 to 100000 nM. Besides, the “[Agonist] B-arrestin2 recruitment” value in assay [2] (at 10 μM) is “Non-Active at 10 μM”.
`Cc1cnc2cc([C@H]3CC[C@H](c4c(C)cccc4F)C3)c(=O)n(Cc3ncccc3C(F)F)c2n1` [187B, 5-((3-(Difluoromethyl)pyridin-2-yl)methyl)-7-((1S,3S)-3-(2-fluoro-6-methylphenyl)cyclopentyl)-3-methylpyrido[2,3-b]pyrazin-6(5H)-one]: the IC50 in assay [1] is less than 500 nM. Besides, the “[Agonist] B-arrestin2 recruitment” value in assay [2] (at 10 μM) is reported as “Non-Active at 10 μM”.
In the case of `Cc1cccc(F)c1N1CCC(c2c(C)c3nccnc3n(Cc3ncccc3C(F)(F)F)c2=O)CC1` [compound 57, 7-(1-(2-Fluoro-6-methylphenyl)piperidin-4-yl)-8-methyl-5-((3-(trifluoromethyl)pyridin-2-yl)methyl)pyrido[2,3-b]pyrazin-6(5H)-one], the IC50 in assay [1] is less than 500 nM. For the same molecule, the “[Agonist] B-arrestin2 recruitment” value in assay [2] is reported as “Non-Active”.
For the molecule `Cc1ccc2cc([C@H]3CC[C@H](c4c(C)cccc4F)CC3)c(=O)n(Cc3nccnc3C3CC3)c2n1` [compound 257, 1-[(3-Cyclopropyl-2-pyrazinyl)methyl]-7-methyl-3-[(1r,4r)-4-(2-fluoro-6-tolyl)cyclohexyl]-1,8-diaza-2(1H)-naphthalenone], in assay [1], the IC50 was less than 500 nM. In addition, in assay [2], the “[Agonist] B-arrestin2 recruitment” value was “Non-Active”.
For `Cc1cccc(F)c1[C@H]1CC[C@H](c2cc3ncc(CC(F)(F)F)nc3n(Cc3ncccc3C(F)(F)F)c2=O)CC1` [compound 229, 7-((1r,4r)-4-(2-Fluoro-6-methylphenyl)cyclohexyl)-3-(2,2,2-trifluoroethyl)-5-((3-(trifluoromethyl)pyridin-2-yl)methyl)pyrido[2,3-b]pyrazin-6(5H)-one], the IC50 in assay [1] was less than 500 nM. Further, in assay [2] (at 10 μM), the “[Agonist] B-arrestin2 recruitment” value is listed as “Non-Active at 10 μM”.

For the origin of these results see patent publication US20260317320A1, “C5AR1 ANTAGONISTS AND USES THEREOF” (Vanqua Bio, Inc., priority 2022, published 2026).
